Biological target: T1, MshC (Mycobacterium tuberculosis, UniProt P9WJM9)
T1 sequence (P9WJM9 1-414): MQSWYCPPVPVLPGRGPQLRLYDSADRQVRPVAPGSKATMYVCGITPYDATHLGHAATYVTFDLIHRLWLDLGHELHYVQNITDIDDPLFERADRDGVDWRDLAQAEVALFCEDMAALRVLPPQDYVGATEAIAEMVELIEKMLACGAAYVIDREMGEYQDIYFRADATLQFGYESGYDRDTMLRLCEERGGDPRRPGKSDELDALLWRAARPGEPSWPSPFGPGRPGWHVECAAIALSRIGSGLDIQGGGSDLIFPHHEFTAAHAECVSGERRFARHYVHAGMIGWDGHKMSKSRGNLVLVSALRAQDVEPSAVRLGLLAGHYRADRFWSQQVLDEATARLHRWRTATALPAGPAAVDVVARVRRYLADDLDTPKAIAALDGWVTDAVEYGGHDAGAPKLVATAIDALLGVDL
Test: biochemical
Format: biochemical, M. tuberculosis
Settings: for inhibition of MshC in words, compounds grouped by X: X=S, X=SO, X=SO2

O=C(NCCCN1CCN(Cc2ccccc2)CC1)c1ccc2c(c1)N(Cc1ccccc1)C(=O)c1ccccc1S2(=O)=O [Inhibitor 83-52]
inhibition of MshC in words, compounds lacking the basic amino group or with groups in excess of 10 carbons on the remote amino residue: little or no inhibition | IC50: 2500 ± 1200 µM

CC(C)CN(CCCNC(=O)c1ccc2c(c1)N(Cc1ccccc1)C(=O)c1ccccc1S2(=O)=O)CC(C)C [Inhibitor 83-53]
IC50: > 3000 µM

CN(CCNC(=O)c1ccc2c(c1)N(Cc1ccccc1)C(=O)c1ccccc1S2(=O)=O)C1CCCCC1 [Inhibitor 83-54]
inhibition of MshC in words, 1,3-diaminopropyl residue with remote amino residue capable of protonation: measurable inhibition | inhibition of MshC in words, Z benzyl moiety with methyl groups in the 2,5 positions or unsubstituted: Weak but detectable inhibition | IC50: 510 ± 80 µM | inhibition of MshC in words, compounds grouped by X: Significant inhibition

O=C(NCCCSC1CCCCC1)c1ccc2c(c1)N(Cc1ccccc1)C(=O)c1ccccc1S2(=O)=O [Inhibitor 83-55]
inhibition of MshC in words, compounds lacking the basic amino group or with groups in excess of 10 carbons on the remote amino residue: little or no inhibition | IC50: > 3000 µM

O=C(NCCN1CCN(Cc2ccccc2)CC1)c1ccc2c(c1)N(Cc1cccc(Cl)c1)C(=O)c1ccccc1[S+]2[O-] (stereo not shown) [Inhibitor 83-56]
inhibition of MshC in words, compounds lacking the basic amino group or with groups in excess of 10 carbons on the remote amino residue: little or no inhibition | IC50: > 3000 µM

CC1CCCN(CCCNC(=O)c2ccc3c(c2)N(Cc2cccc(Cl)c2)C(=O)c2ccccc2S3(=O)=O)C1 (stereo not shown) [Inhibitor 83-57]
IC50: ~1000 µM

O=C(NCCCC1CCCCCC1)c1ccc2c(c1)N(Cc1cccc(Cl)c1)C(=O)c1ccccc1S2(=O)=O [Inhibitor 83-58]
inhibition of MshC in words, Z is a benzyl moiety bearing one or more halogens: Measurable inhibition | IC50: ≥ 500 µM

CN(CCCNC(=O)c1ccc2c(c1)N(Cc1cccc(Cl)c1)C(=O)c1ccccc1S2(=O)=O)c1ccccc1 [Inhibitor 83-59]
IC50: > 3000 µM

CCCCN(C)CCCNC(=O)c1ccc2c(c1)N(Cc1cccc(Cl)c1)C(=O)c1ccccc1[S+]2[O-] (stereo not shown) [Inhibitor 83-60]
inhibition of MshC in words, compounds grouped by X: Significant inhibition

O=C(NCCCSC1CCCCC1)c1ccc2c(c1)N(Cc1cccc(Cl)c1)C(=O)c1ccccc1[S+]2[O-] (stereo not shown) [Inhibitor 83-61]
inhibition of MshC in words, compounds lacking the basic amino group or with groups in excess of 10 carbons on the remote amino residue: little or no inhibition | IC50: ~1000 µM

O=C(NCCN1CCN(Cc2ccccc2)CC1)c1ccc2c(c1)N(Cc1cccc(Cl)c1)C(=O)c1ccccc1[S+]2[O-] (stereo not shown) [Inhibitor 83-62]
inhibition of MshC in words, compounds lacking the basic amino group or with groups in excess of 10 carbons on the remote amino residue: little or no inhibition | IC50: 2100 ± 900 µM

CN(CCCNC(=O)c1ccc2c(c1)N(Cc1cccc(Cl)c1)C(=O)c1ccccc1[S+]2[O-])c1ccccc1 (stereo not shown) [Inhibitor 83-63]
IC50: > 2000 µM

CC1CCCN(CCCNC(=O)c2ccc3c(c2)N(Cc2cccc(Cl)c2)C(=O)c2ccccc2[S+]3[O-])C1 (stereo not shown) [Inhibitor 83-64]
inhibition of MshC in words, 1,3-diaminopropyl residue with remote amino residue capable of protonation: measurable inhibition | inhibition of MshC in words, Z is a benzyl moiety bearing one or more halogens: Measurable inhibition | IC50: 150 ± 30 µM | inhibition of MshC in words, compounds grouped by X: Significant inhibition

CC1CC(C)CN(CCCNC(=O)c2ccc3c(c2)N(Cc2cccc(Cl)c2)C(=O)c2ccccc2[S+]3[O-])C1 (stereo not shown) [Inhibitor 83-65]
inhibition of MshC in words, 1,3-diaminopropyl residue with remote amino residue capable of protonation: measurable inhibition | inhibition of MshC in words, Z is a benzyl moiety bearing one or more halogens: Measurable inhibition | inhibition of MshC in words, compounds grouped by X: Significant inhibition

CCC1CCCN(CCCNC(=O)c2ccc3c(c2)N(Cc2cccc(Cl)c2)C(=O)c2ccccc2[S+]3[O-])C1 (stereo not shown) [Inhibitor 83-66]
inhibition of MshC in words, 1,3-diaminopropyl residue with remote amino residue capable of protonation: measurable inhibition | inhibition of MshC in words, Z is a benzyl moiety bearing one or more halogens: Measurable inhibition | IC50: 80 ± 20 µM | inhibition of MshC in words, compounds grouped by X: Significant inhibition

CC(C)CN(CCCNC(=O)c1ccc2c(c1)N(Cc1cccc(Cl)c1)C(=O)c1ccccc1[S+]2[O-])CC(C)C (stereo not shown) [Inhibitor 83-67]
IC50: ~3000 µM

O=C(NC1CCN(Cc2ccccc2)CC1)c1ccc2c(c1)N(Cc1cccc(Cl)c1)C(=O)c1ccccc1[S+]2[O-] (stereo not shown) [Inhibitor 83-68]
IC50: 1500 ± 500 µM

Source: patent US20100022509A1, “Inhibitors of MshC and Homologs Thereof, and Methods of Identifying Same” (priority 2006, published 2010)
